“And” between values parts separate entries of the source, which are not always exact repeats. Identical values can stand only once. Toxic doses and inconclusive results are not listed. The calls were made as follows: active = survival T/C of 150% or more; inactive = T/C below 125% in these data.
System: P388 leukemia ip, CD2F1 mice, survival T/C
Assay: NCI In Vivo Anticancer Drug Screen. Data for tumor model P388 Leukemia (intraperitoneal) in CD2F1 (CDF1) mice
Conditions: endpoint: median survival time, higher = longer survival
Procedure, shortened: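 Mice carrying the transplanted tumor received test compound or vehicle. Survival was recorded in each group, and the value is the treated-group measurement divided by that of the vehicle-treated control group.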

[1] = dose: 60.0 mg/kg/injection, schedule: Q01DX005 (ip), vehicle: Klucel (hydroxypropylcellulose) (HPC)
[2] = dose: 120.0 mg/kg/injection, schedule: Q01DX005 (ip), vehicle: Klucel (hydroxypropylcellulose) (HPC)
[3] = dose: 240.0 mg/kg/injection, schedule: Q01DX005 (ip), vehicle: Klucel (hydroxypropylcellulose) (HPC)
[4] = dose: 100.0 mg/kg/injection, schedule: Q04DX003 (ip), vehicle: saline with Tween-80
[5] = dose: 200.0 mg/kg/injection, schedule: Q04DX003 (ip), vehicle: saline with Tween-80
[6] = dose: 400.0 mg/kg/injection, schedule: Q04DX003 (ip), vehicle: saline with Tween-80
[7] = dose: 12.5 mg/kg/injection, schedule: Q01DX009 (ip), vehicle: saline with Tween-80
[8] = dose: 25.0 mg/kg/injection, schedule: Q01DX009 (ip), vehicle: saline with Tween-80
[9] = dose: 50.0 mg/kg/injection, schedule: Q01DX005 (ip), vehicle: Klucel (hydroxypropylcellulose) (HPC)
[10] = dose: 100.0 mg/kg/injection, schedule: Q01DX005 (ip), vehicle: Klucel (hydroxypropylcellulose) (HPC)
[11] = dose: 200.0 mg/kg/injection, schedule: Q01DX005 (ip), vehicle: Klucel (hydroxypropylcellulose) (HPC)
[12] = dose: 25.0 mg/kg/injection, schedule: Q01DX009 (ip), vehicle: Klucel (hydroxypropylcellulose) (HPC)
[13] = dose: 50.0 mg/kg/injection, schedule: Q01DX009 (ip), vehicle: Klucel (hydroxypropylcellulose) (HPC)
[14] = dose: 100.0 mg/kg/injection, schedule: Q01DX009 (ip), vehicle: Klucel (hydroxypropylcellulose) (HPC)
[15] = dose: 200.0 mg/kg/injection, schedule: Q01DX009 (ip), vehicle: Klucel (hydroxypropylcellulose) (HPC)
[16] = dose: 50.0 mg/kg/injection, schedule: Q01DX009 (ip), vehicle: saline with Tween-80
[17] = dose: 50.0 mg/kg/injection, schedule: Q01DX005 (ip), vehicle: saline with Tween-80
[18] = dose: 100.0 mg/kg/injection, schedule: Q01DX005 (ip), vehicle: saline with Tween-80
[19] = dose: 200.0 mg/kg/injection, schedule: Q01DX005 (ip), vehicle: saline with Tween-80
[20] = dose: 12.5 mg/kg/injection, schedule: Q01DX005 (ip), vehicle: saline
[21] = dose: 25.0 mg/kg/injection, schedule: Q01DX005 (ip), vehicle: saline
[22] = dose: 60.0 mg/kg/injection, schedule: Q01DX005 (ip), vehicle: saline with Tween-80
[23] = dose: 120.0 mg/kg/injection, schedule: Q01DX005 (ip), vehicle: saline with Tween-80
[24] = dose: 240.0 mg/kg/injection, schedule: Q01DX005 (ip), vehicle: saline with Tween-80
[25] = dose: 100.0 mg/kg/injection, schedule: Q01DX009 (ip), vehicle: saline with Tween-80
[26] = dose: 200.0 mg/kg/injection, schedule: Q01DX009 (ip), vehicle: saline with Tween-80
[27] = dose: 100.0 mg/kg/injection, schedule: Q04DX003 (ip), vehicle: saline
[28] = dose: 400.0 mg/kg/injection, schedule: Q04DX003 (ip), vehicle: saline

Measured: T/C

O=[N+]([O-])c1ccc(-c2noc(-c3cccs3)n2)cc1
inactive: [1] 95 % of control | [2] 101 % of control | [3] 97 % of control

CCn1c2ccccc2c2cc(N=Nc3cc(C(C)C)c(O)cc3C)ccc21
inactive: [4] 93 % of control | [5] 102 % of control | [6] 102 % of control

FC(F)(F)S.[Ag]
inactive: [7] 107 % of control | [8] 116 % of control

CCOC(=O)CNc1sc(=S)[nH]c1C(=O)OCC
inactive: [9] 100 % of control | [10] 91 % of control | [11] 92 % of control

Clc1ccc(-c2noc(/C=C\c3ccccc3)n2)cc1
inactive: [12] 99 % of control and 86 % of control | [13] 98 % of control and 86 % of control | [14] 86 % of control and 97 % of control | [15] 95 % of control

CC[C@H]1CN2CCc3cc(OC)c(OC)cc3[C@@H]2C[C@@H]1C[C@@H]1c2cc(OC)c(OC)cc2CCN1N=O
inactive: dose: 6.25 mg/kg/injection, schedule: Q01DX009 (ip), vehicle: saline with Tween-80 96 % of control | [7] 99 % of control | [8] 107 % of control | [16] 100 % of control

O=c1c2ccccc2oc2c(Br)c3c(c(O)c12)CCCC3
inactive: [9] 103 % of control | [10] 87 % of control | [11] 96 % of control

CC(=O)NC1CCC(C2CCCCC2)CC1C1CCCCC1 (configuration not stated)
inactive: [17] 107 % of control | [18] 98 % of control | [19] 102 % of control

CC1CCCC2CCCOCN12 (configuration not stated)
inactive: dose: 12.5 mg/kg/injection, schedule: Q01DX005 (ip), vehicle: Klucel (hydroxypropylcellulose) (HPC) 107 % of control | [20] 103 % of control | dose: 25.0 mg/kg/injection, schedule: Q01DX005 (ip), vehicle: Klucel (hydroxypropylcellulose) (HPC) 106 % of control | [21] 99 % of control | [9] 104 % of control | dose: 50.0 mg/kg/injection, schedule: Q01DX005 (ip), vehicle: saline 100 % of control and 104 % of control | [10] 101 % of control | dose: 100.0 mg/kg/injection, schedule: Q01DX005 (ip), vehicle: saline 122 % of control and 98 % of control

Cc1cc(O)c(C=Nc2ccccc2C)c(=O)o1
inactive: [17] 102 % of control | [18] 103 % of control | [19] 105 % of control

CN(CC#CCN(C)C1=NC(=O)CC1)C1=NC(=O)CC1
inactive: [1] 92 % of control | [2] 94 % of control | [3] 100 % of control

NC(=O)C1=NOC(C(N)=O)C1C1OC(CO)C(O)C1O (configuration not stated)
inactive: dose: 25.0 mg/kg/injection, schedule: Q01DX005 (ip), vehicle: other 98 % of control | dose: 50.0 mg/kg/injection, schedule: Q01DX005 (ip), vehicle: other 97 % of control | dose: 100.0 mg/kg/injection, schedule: Q01DX005 (ip), vehicle: other 95 % of control | dose: 200.0 mg/kg/injection, schedule: Q01DX005 (ip), vehicle: other 105 % of control

O=C1CSC(c2ccccc2Br)N1c1nncs1 (configuration not stated)
inactive: [22] 101 % of control | [23] 97 % of control | [24] 93 % of control

Cc1ccc(NC(=O)CCCC(=O)C(C#N)c2nc3ccccc3s2)cc1C (configuration not stated)
inactive: [22] 100 % of control | [23] 98 % of control | [24] 98 % of control

Cc1noc(NS(=O)(=O)c2ccc(N=Nc3cc(N=Nc4ccc(S(=O)(=O)Nc5onc(C)c5C)cc4)c4c(NC(=O)C(Cl)Cl)cccc4c3OC(=O)C(Cl)Cl)cc2)c1C
inactive: [16] 94 % of control | [25] 100 % of control

O=C1NN=C(c2ccccc2)SC1c1ccccc1 (configuration not stated)
inactive: dose: 12.5 mg/kg/injection, schedule: Q01DX005 (ip), vehicle: saline with Tween-80 93 % of control | dose: 25.0 mg/kg/injection, schedule: Q01DX005 (ip), vehicle: saline with Tween-80 95 % of control | [17] 90 % of control and 92 % of control | [19] 90 % of control

Nc1nc(N)c2c(ccc3nccc32)[nH]1
inactive: dose: 6.25 mg/kg/injection, schedule: Q01DX005 (ip), vehicle: saline 103 % of control | [20] 103 % of control | [21] 110 % of control

OC1(c2nccc3ccccc23)CCN(CCc2ccccc2)CC1
inactive: dose: 12.5 mg/kg/injection, schedule: Q01DX009 (ip), vehicle: saline 102 % of control | dose: 25.0 mg/kg/injection, schedule: Q01DX009 (ip), vehicle: saline 97 % of control | [16] 87 % of control | dose: 50.0 mg/kg/injection, schedule: Q01DX009 (ip), vehicle: saline 108 % of control

CN(C)c1nc(O)c(N=O)c(=O)[nH]1
inactive: dose: 50.0 mg/kg/injection, schedule: Q04DX002 (ip), vehicle: suspension in saline 100 % of control | dose: 100.0 mg/kg/injection, schedule: Q04DX002 (ip), vehicle: suspension in saline 107 % of control | dose: 200.0 mg/kg/injection, schedule: Q04DX002 (ip), vehicle: suspension in saline 108 % of control

COC(=O)C[C@@]1(C(=O)OC)[C@@H](C(=O)OC)C(C(=O)OC)=NN1C
inactive: dose: 12.5 mg/kg/injection, schedule: Q04DX002 (ip), vehicle: Klucel (hydroxypropylcellulose) (HPC) 100 % of control | dose: 25.0 mg/kg/injection, schedule: Q04DX002 (ip), vehicle: Klucel (hydroxypropylcellulose) (HPC) 98 % of control | dose: 50.0 mg/kg/injection, schedule: Q04DX002 (ip), vehicle: Klucel (hydroxypropylcellulose) (HPC) 100 % of control

C=CCn1c(=O)n(CC)c(=O)c2[nH]c(C(F)(F)F)nc21
inactive: [12] 99 % of control | [13] 102 % of control | [14] 112 % of control

O=S(=O)(O)CNc1cccc(Cl)c1
inactive: [16] 106 % of control | [25] 95 % of control | [26] 98 % of control

COCNC(=S)c1ccc(C(N)=O)nc1C(=O)NC(C)(C)C
inactive: [17] 98 % of control | [18] 100 % of control | [19] 99 % of control

C=CCCCn1nnc2ccccc21
inactive: [4] 102 % of control | [5] 94 % of control | [6] 86 % of control

CN(C)CCO[Si](C)(c1ccccc1)c1ccc(F)cc1 (configuration not stated)
inactive: [7] 100 % of control | [8] 101 % of control | [16] 98 % of control and 101 % of control | [25] 99 % of control | [26] 114 % of control

CS/C(=N\N=C(/C)c1ccccn1)N/N=C(\SC)N(C)c1ccccc1
inactive: [17] 108 % of control | [18] 104 % of control | [19] 110 % of control

O=C1c2ccccc2C(=O)N1CCC[P+](c1ccccc1)(c1ccccc1)c1ccccc1
inactive: dose: 1.56 mg/kg/injection, schedule: Q01DX009 (ip), vehicle: saline 122 % of control

O=C1NC(=O)C(=O)N1
inactive: [27] 100 % of control | [28] 100 % of control

COc1ccc2nc3cc(Cl)ccc3c(NCCCCNc3c4ccc(Cl)cc4nc4ccc(OC)nc34)c2n1
inactive: [4] 102 % of control | [5] 118 % of control

COC(=O)N/N=C(/CC1(O)C(=O)Nc2ccccc21)c1ccc(Cl)cc1Cl (configuration not stated)
inactive: [17] 99 % of control | [18] 93 % of control | [19] 92 % of control

CSC(=S)c1ccc(NSc2ccccc2[N+](=O)[O-])cc1
inactive: [27] 113 % of control | dose: 200.0 mg/kg/injection, schedule: Q04DX003 (ip), vehicle: saline 110 % of control | [28] 93 % of control

C=Cc1ccccc1 (tested in a mixture with another compound)
inactive: [20] 98 % of control | [21] 99 % of control

Cc1ccc(NC2=NCCS2)cc1Cl
inactive: [13] 110 % of control | [14] 115 % of control | [15] 89 % of control

O=C(O)C1CCCCC12OCCO2 (configuration not stated)
inactive: dose: 100.0 mg/kg/injection, schedule: Q04DX002 (ip), vehicle: saline 102 % of control | dose: 200.0 mg/kg/injection, schedule: Q04DX002 (ip), vehicle: saline 106 % of control | dose: 400.0 mg/kg/injection, schedule: Q04DX002 (ip), vehicle: saline 98 % of control
